Experimental data as given in ChEMBL document CHEMBL5321246, “Aurones: A Promising Scaffold to Inhibit SARS-CoV-2 Replication” (J Nat Prod, 2023).

Legend:
SARS-CoV-2 [1] = assay: Antiviral activity against SARS-CoV-2 B.1 lineage isolate infected in human Calu-3 cells assessed as inhibition of viral replication at 10 uM infected with cells for 1 hr followed by compound addition and measured 24 hrs post infection by crystal violet staining based PFU assay relative to control; format: functional; settings: Severe acute respiratory syndrome coronavirus 2, B.1, Calu-3
[2] = Cytotoxicity against human Calu-3 cells assessed as reduction in cell viability incubated for 72 hrs by methylene blue assay; format: toxicity, cell-based
[3] = Cytotoxicity against human Calu-3 cells assessed as cell viability at 250 uM incubated for 72 hrs by methylene blue assay relative to control; format: toxicity, cell-based; settings: read-out: Activity
SARS-CoV-2 [4] = assay: Antiviral activity against SARS-CoV-2 B.1 lineage isolate infected in human Calu-3 cells assessed as inhibition of viral replication infected with cells for 1 hr followed by compound addition and measured 24 hrs post infection by crystal violet staining based PFU assay; format: functional, organism-based; settings: Severe acute respiratory syndrome coronavirus 2, B.1, Calu-3
[5] = Selectivity index, ratio of CC50 for cytotoxicity against human Calu-3 cells to EC50 for antiviral activity against SARS-CoV-2 B.1 lineage isolate infected in human Calu-3 cells; format: toxicity, cell-based; settings: read-out: Ratio CC50/EC50
SARS-CoV-2 [6] = assay: Antiviral activity against SARS-CoV-2 B.1 lineage isolate infected in human Calu-3 cells assessed as inhibition of viral replication at 1 uM infected with cells for 1 hr followed by compound addition and measured 24 hrs post infection by crystal violet staining based PFU assay relative to control; format: functional; settings: Severe acute respiratory syndrome coronavirus 2, B.1, Calu-3
SARS-CoV-2 [7] = assay: Antiviral activity against SARS-CoV-2; format: functional, organism-based; settings: Severe acute respiratory syndrome coronavirus 2
SARS-CoV-2 [8] = assay: Potency index, ratio of baicalein EC50 to test compound EC50 for antiviral activity against SARS-CoV-2 infected in human Calu-3 cells assessed as inhibition of viral replication; format: functional, Severe acute respiratory syndrome coronavirus 2
SARS-CoV-2 [9] = assay: Potency index, ratio of myricetin EC50 to test compound EC50 for antiviral activity against SARS-CoV-2 infected in human Calu-3 cells assessed as inhibition of viral replication; format: functional, Severe acute respiratory syndrome coronavirus 2
SARS-CoV-2 [10] = assay: Antiviral activity against SARS-CoV-2 B.1 lineage infected in human Calu-3 cells assessed as inhibition of viral replication; format: functional, organism-based; settings: Severe acute respiratory syndrome coronavirus 2, B.1, Calu-3
[11] = Cytotoxicity against African green monkey Vero E6 cells assessed as reduction in cell viability by CCK8 assay; format: toxicity, cell-based, Vero C1008; settings: chlorocebus sabaeus
SARS-CoV-2 [12] = assay: Antiviral activity against SARS-CoV-2 infected in human Calu-3 cells; format: functional, organism-based; settings: Severe acute respiratory syndrome coronavirus 2, Calu-3
SARS-CoV-2 [13] = assay: Antiviral activity against SARS-CoV-2 infected in human Calu-3 cells assessed as inhibition of viral replication incubated for 48 hrs by PFU assay; format: functional, organism-based; settings: Severe acute respiratory syndrome coronavirus 2, Calu-3, 48 h
SARS-CoV-2 [14] = assay: Antiviral activity against SARS-CoV-2 in presence of ritonavir; format: functional, organism-based; settings: Severe acute respiratory syndrome coronavirus 2
SARS-CoV-2 [15] = assay: Antiviral activity against SARS-CoV-2 in presence of lopinavir; format: functional, organism-based; settings: Severe acute respiratory syndrome coronavirus 2

| Structure (SMILES) | inhibition at 10 µM (SARS-CoV-2 [1]) | CC50 at 72 h [2] | viability at 72 h, 250 µM [3] | EC50 (SARS-CoV-2 [4]) | selectivity ratio [5] | inhibition at 1 µM (SARS-CoV-2 [6]) | further results |
| --- | --- | --- | --- | --- | --- | --- | --- |
| COc1ccc(/C=C2\Oc3cc(O)ccc3C2=O)cc1 | 24% | > 250 µM | ≥ 80% | > 10 µM |  |  |  |
| COc1ccc2c(c1)O/C(=C\c1ccc(O)cc1)C2=O | 88.3% | > 300 µM | ≥ 80% | 2.8 µM | > 107 | 25% |  |
| COc1ccc(/C=C2\Oc3cc(O)cc(O)c3C2=O)cc1 | 68.4% |  | ≥ 80% |  |  |  |  |
| O=C1/C(=C/c2ccc3c(c2)OCO3)Oc2ccccc21 | 44.6% |  | ≥ 80% |  |  | 69.5% |  |
| COc1cc(/C=C2\Oc3ccccc3C2=O)cc(OC)c1OC | 66.4% | > 250 µM | ≥ 80% | 5.8 µM | > 43.1 |  |  |
| COc1ccc(/C=C2\Oc3cc(OC)ccc3C2=O)cc1 | 94.8% | > 300 µM | ≥ 80% | 1.5 µM | > 200 | 46.5% |  |
| CCC(CC)COC(=O)[C@H](C)N[P@](=O)(OC[C@H]1O[C@@](C#N)(c2ccc3c(N)ncnn23)[C@H](O)[C@@H]1O)Oc1ccccc1 |  |  |  |  |  |  | EC50 (SARS-CoV-2 [7]): 2.5 µM |
| COc1ccc(/C=C2\Oc3cc(O)ccc3C2=O)cc1O | 24.4% | > 250 µM | ≥ 80% | 5.6 µM | > 44.6 | 70.4% |  |
| COc1ccc(/C=C2\Oc3cc(OC(F)F)ccc3C2=O)cc1 | 97.1% | > 300 µM | ≥ 80% | 0.9 µM | > 333 | 69.9% |  |
| COCOc1cc(/C=C2\Oc3ccccc3C2=O)ccc1OC | 97.6% | > 300 µM | ≥ 80% | 1 µM | > 300 | 60.3% |  |
| COCOc1ccc2c(c1OCOC)O/C(=C\c1ccc(OC)cc1)C2=O | 58.2% |  | ≥ 80% |  |  | < 1% |  |
| COCOc1cc(OCOC)c2c(c1)O/C(=C\c1ccc(OC)cc1)C2=O | 95.2% |  | ≥ 80% |  |  | < 1% |  |
| COCOc1cc(/C=C2\Oc3cc(OC)ccc3C2=O)ccc1OC | 88.2% | > 1000 µM | ≥ 80% | 2.3 µM | > 435 | 34.1% |  |
| COCOc1ccc2c(c1)O/C(=C\c1ccc(OC)cc1OCOC)C2=O | 96.2% | 976 µM | ≥ 80% | 0.35 µM | 2440 | 82.5% | Ratio EC50 (SARS-CoV-2 [8]): 3; Ratio EC50 (SARS-CoV-2 [9]): 2 |
| COc1ccc(/C=C2\Oc3cc(OCc4ccccc4)ccc3C2=O)cc1 | 91% | > 300 µM | ≥ 80% | 2.2 µM | > 136 | 36.1% |  |
| COc1ccc2c(c1)O/C(=C\c1ccccc1)C2=O | 99.7% | > 1000 µM | ≥ 80% | 0.49 µM | > 2000 | 59.1% |  |
| COc1ccc(/C=C2\Oc3cc4c(cc3C2=O)OCO4)cc1 | 95.8% | > 1000 µM | ≥ 80% | 2 µM | > 500 | 32.5% |  |
| COc1cccc2c1C(=O)/C(=C/c1ccccc1)O2 | 90.9% |  | ≥ 80% |  |  | < 1% |  |

| Structure (SMILES) | inhibition at 10 µM (SARS-CoV-2 [1]) | CC50 at 72 h [2] | viability at 72 h, 250 µM [3] | EC50 (SARS-CoV-2 [4]) | selectivity ratio [5] | inhibition at 1 µM (SARS-CoV-2 [6]) | further results |
| --- | --- | --- | --- | --- | --- | --- | --- |
| COCOc1cc(OC)ccc1/C=C1\Oc2ccccc2C1=O | 58.3% | > 250 µM | ≥ 80% | 8.2 µM | > 30.5 |  |  |
| COCOc1ccc2c(c1)O/C(=C\c1ccc(OC)cc1)C2=O | 98% | > 1000 µM | ≥ 80% | 0.58 µM | > 1670 | 77.6% |  |
| COc1ccc(/C=C2\Oc3cc(OCc4ccc(F)cc4)ccc3C2=O)cc1 | 85.2% | > 300 µM | ≥ 80% | 2.9 µM | > 104 | 14.5% |  |
| COc1ccc(/C=C2\Oc3c(ccc(O)c3O)C2=O)cc1 | 62.2% | > 300 µM | ≥ 80% | 4.6 µM | > 65.2 | 25.9% |  |
| COCOc1ccc2c(c1)O/C(=C\c1ccc(OC)c(OCOC)c1)C2=O | 95.4% | 817 µM | ≥ 80% | 0.5 µM | 1630 | 77% |  |
| O=C1/C(=C/c2ccc(Cl)cc2)Oc2ccccc21 | 68.8% |  | ≥ 80% |  |  |  |  |
| COc1ccc(/C=C2\Oc3ccccc3C2=O)cc1 [4'-METHOXY-AURONE] | 66.9% |  | ≥ 80% |  |  | 29.2% |  |
| O=C1/C(=C/c2ccccc2)Oc2ccccc21 [(Z)-AURONE] | 81.2% |  | ≥ 80% |  |  | < 1% |  |
| O=c1cc(-c2ccc(O)cc2)oc2cc(O)cc(O)c12 [APIGENIN] |  |  |  |  |  |  | EC50 (SARS-CoV-2 [10]): 5.1 µM |
| O=c1cc(-c2ccccc2)oc2cc(O)c(O)c(O)c12 [BAICALEIN] |  |  |  |  |  |  | CC50 [11]: > 200 µM; EC50 (SARS-CoV-2 [12]): 1.2 µM |
| O=c1c(O)c(-c2ccc(O)cc2)oc2cc(O)cc(O)c12 [KAEMPFEROL] |  |  |  |  |  |  | EC50 (SARS-CoV-2 [10]): 3 µM |
| COc1cc(O)c2c(=O)c(OC)c(-c3ccc(O)cc3)oc2c1 [KUMATAKENIN] |  |  |  |  |  |  | EC50 (SARS-CoV-2 [13]): 0.3 µM |
| Cc1cccc(C)c1OCC(=O)N[C@@H](Cc1ccccc1)[C@@H](O)C[C@H](Cc1ccccc1)NC(=O)[C@H](C(C)C)N1CCCNC1=O [LOPINAVIR] |  |  |  |  |  |  | EC50 (SARS-CoV-2 [14]): 5 µM |
| CC(C)C(=O)OC[C@H]1O[C@@H](n2cc/c(=N\O)[nH]c2=O)[C@H](O)[C@@H]1O [MOLNUPIRAVIR] |  |  |  |  |  |  | EC50 (SARS-CoV-2 [7]): 2 µM |
| O=c1c(O)c(-c2cc(O)c(O)c(O)c2)oc2cc(O)cc(O)c12 [MYRICETIN] |  |  |  |  |  |  | EC50 (SARS-CoV-2 [10]): 0.9 µM |
| O=c1c(O)c(-c2ccc(O)c(O)c2)oc2cc(O)cc(O)c12 [QUERCETIN] |  |  |  |  |  |  | EC50 (SARS-CoV-2 [10]): 2.4 µM |
| COc1cc(O)c2c(=O)c(OC)c(-c3ccc(OC)c(OC)c3)oc2c1 [RETUSIN] |  |  |  |  |  |  | EC50 (SARS-CoV-2 [13]): 0.6 µM |
| CC(C)c1nc(CN(C)C(=O)N[C@H](C(=O)N[C@@H](Cc2ccccc2)C[C@H](O)[C@H](Cc2ccccc2)NC(=O)OCc2cncs2)C(C)C)cs1 [RITONAVIR] |  |  |  |  |  |  | EC50 (SARS-CoV-2 [15]): 5 µM |
